Source: patent US10227350B2 (Gilead Sciences, Inc., priority 2016, dated 2019)
pIC50: −log10 of the molar value.

Target: PI3Kβ (Homo sapiens (Human), UniProt P42338)
Test: TR-FRET enzymatic activity assay, PI3Kβ
Assay type: biochemical
Settings: 2× Km ATP, 2 μM PIP2, 30 minutes at 25° C., read-out: IC50-PIP-Beta
In short: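 Purified recombinant heterodimeric PI3Kβ; PIP3 formation read by TR-FRET as competition with fluorescent tracer for GRP-1 PH domain binding. Compounds incubated 30 min at 25 °C.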

Chain of PI3Kβ (P42338 whole entry): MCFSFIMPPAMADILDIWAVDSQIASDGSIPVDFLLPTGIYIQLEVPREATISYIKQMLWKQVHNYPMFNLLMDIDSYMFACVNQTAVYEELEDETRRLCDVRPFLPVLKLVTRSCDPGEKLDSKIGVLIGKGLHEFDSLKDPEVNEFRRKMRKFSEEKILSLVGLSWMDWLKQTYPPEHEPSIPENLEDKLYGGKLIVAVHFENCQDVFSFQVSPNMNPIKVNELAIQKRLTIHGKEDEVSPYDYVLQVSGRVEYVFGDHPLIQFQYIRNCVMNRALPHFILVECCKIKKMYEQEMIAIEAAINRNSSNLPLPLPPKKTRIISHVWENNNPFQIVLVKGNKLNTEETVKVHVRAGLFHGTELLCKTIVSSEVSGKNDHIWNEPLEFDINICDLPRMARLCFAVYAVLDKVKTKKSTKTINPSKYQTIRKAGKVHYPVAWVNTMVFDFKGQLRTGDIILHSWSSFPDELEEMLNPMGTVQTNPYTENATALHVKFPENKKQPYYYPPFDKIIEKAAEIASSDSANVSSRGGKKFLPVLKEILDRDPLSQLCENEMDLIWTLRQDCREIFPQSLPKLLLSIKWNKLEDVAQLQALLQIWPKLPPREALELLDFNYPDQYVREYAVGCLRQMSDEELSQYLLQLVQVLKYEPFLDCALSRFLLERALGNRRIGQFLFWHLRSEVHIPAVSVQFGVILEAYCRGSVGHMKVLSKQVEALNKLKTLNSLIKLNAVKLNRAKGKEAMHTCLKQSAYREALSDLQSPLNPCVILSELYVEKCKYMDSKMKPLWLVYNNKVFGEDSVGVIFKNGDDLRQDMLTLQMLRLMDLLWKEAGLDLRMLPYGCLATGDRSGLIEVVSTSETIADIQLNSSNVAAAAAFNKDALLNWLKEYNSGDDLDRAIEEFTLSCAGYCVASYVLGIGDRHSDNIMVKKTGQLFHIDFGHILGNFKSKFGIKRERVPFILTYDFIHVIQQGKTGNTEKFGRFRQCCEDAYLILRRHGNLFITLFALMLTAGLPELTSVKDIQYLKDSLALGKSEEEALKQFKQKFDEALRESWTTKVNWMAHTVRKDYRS
Chain of PI3Kβ (P27986 whole entry partner): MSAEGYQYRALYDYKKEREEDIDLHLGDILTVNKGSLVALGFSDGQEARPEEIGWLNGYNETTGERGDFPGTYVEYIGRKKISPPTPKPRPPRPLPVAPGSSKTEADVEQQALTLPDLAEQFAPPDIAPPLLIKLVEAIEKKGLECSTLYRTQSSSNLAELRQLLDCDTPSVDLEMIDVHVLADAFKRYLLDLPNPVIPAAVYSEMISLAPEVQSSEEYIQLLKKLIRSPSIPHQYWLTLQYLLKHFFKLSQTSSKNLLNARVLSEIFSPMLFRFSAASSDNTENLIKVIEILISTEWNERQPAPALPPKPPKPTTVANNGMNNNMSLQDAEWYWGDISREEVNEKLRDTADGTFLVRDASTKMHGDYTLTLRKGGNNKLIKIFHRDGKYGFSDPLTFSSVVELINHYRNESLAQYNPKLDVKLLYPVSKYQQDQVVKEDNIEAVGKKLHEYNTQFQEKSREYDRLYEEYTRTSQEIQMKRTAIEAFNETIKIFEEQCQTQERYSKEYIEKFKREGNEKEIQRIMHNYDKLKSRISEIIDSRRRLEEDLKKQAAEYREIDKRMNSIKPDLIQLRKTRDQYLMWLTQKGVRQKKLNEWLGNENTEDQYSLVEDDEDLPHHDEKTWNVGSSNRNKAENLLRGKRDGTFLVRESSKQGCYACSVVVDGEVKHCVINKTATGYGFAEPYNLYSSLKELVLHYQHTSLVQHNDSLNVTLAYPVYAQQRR

Row | SMILES | pIC50
1 | Cc1nc2c(-c3nnc[nH]3)cc(-c3ccnc(F)c3)cc2n1-c1ccnc2c(F)ccc(F)c12 [Example 159, 5,8-difluoro-4-(6-(2-fluoropyridin-4-yl)-2-methyl-4-(4H-1,2,4-triazol-3-yl)-1H-benzo[d]imidazol-1-yl)quinoline] | 8.30
2 | Cc1nc2c(-c3nnc[nH]3)cc(-c3ccnc(N)c3F)cc2n1-c1ccnc2cc(F)cc(F)c12 [Example 160, 4-(1-(5,7-difluoroquinolin-4-yl)-2-methyl-4-(4H-1,2,4-triazol-3-yl)-1H-benzo[d]imidazol-6-yl)-3-fluoropyridin-2-amine] | 8.15
3 | Cc1nc2c(-c3nnc[nH]3)cc(-c3ccnc(N)c3F)cc2n1-c1ccnc2c(Cl)ccc(Cl)c12 [Example 161, 4-(1-(5,8-dichloroquinolin-4-yl)-2-methyl-4-(4H-1,2,4-triazol-3-yl)-1H-benzo[d]imidazol-6-yl)-3-fluoropyridin-2-amine] | 8.22
4 | Nc1nccc(-c2cc(-c3nnc[nH]3)c3ncn(-c4cc(N5CCNCC5)nc5ccccc45)c3c2)c1F [Example 162, 3-fluoro-4-(1-(2-(piperazin-1-yl)quinolin-4-yl)-4-(4H-1,2,4-triazol-3-yl)-1H-benzo[d]imidazol-6-yl)pyridin-2-amine] | 8.00
5 | Nc1nccc(-c2ccc3ncn(-c4cc(N5CCNCC5)nc5ccccc45)c3c2)c1F [Example 163, 3-fluoro-4-(1-(2-(piperazin-1-yl)quinolin-4-yl)-1H-benzo[d]imidazol-6-yl)pyridin-2-amine] | 6.92
6 | Fc1nccc(-c2cc(-c3nnc[nH]3)c3ncn(-c4cc(N5CCNCC5)nc5ccccc45)c3c2)c1F [Example 164, 4-(6-(2,3-difluoropyridin-4-yl)-4-(4H-1,2,4-triazol-3-yl)-1H-benzo[d]imidazol-1-yl)-2-(piperazin-1-yl)quinoline] | 8.00
7 | Fc1nccc(-c2ccc3ncn(-c4cc(N5CCNCC5)nc5ccccc45)c3c2)c1F [Example 165, 4-(6-(2,3-difluoropyridin-4-yl)-1H-benzo[d]imidazol-1-yl)-2-(piperazin-1-yl)quinoline] | 6.32
8 | N#Cc1cc(-c2cc(-c3nnc[nH]3)c3ncn(-c4cc(-c5cn[nH]c5)nc5ccccc45)c3c2)ccn1 [Example 166, 4-(1-(2-(1H-pyrazol-4-yl)quinolin-4-yl)-4-(4H-1,2,4-triazol-3-yl)-1H-benzo[d]imidazol-6-yl)picolinonitrile] | 7.15
9 | N#Cc1cc(-c2cc(-c3nnc[nH]3)c3ncn(-c4cc(N5CCNCC5)nc5ccccc45)c3c2)ccn1 [Example 167, 4-(1-(2-(piperazin-1-yl)quinolin-4-yl)-4-(4H-1,2,4-triazol-3-yl)-1H-benzo[d]imidazol-6-yl)picolinonitrile] | 8.00
